Results reported in US7566727B2, “2-(1-aza-bicyclo[2.2.2]oct-3-yl)-2,3-dihydro-isoindole-1-one/5,6-dihydro-furo[2,3-c] pyrrol-4-one derivative ligands for alpha 7 nicotinic acetylcholine receptor” (priority 2004, dated 2009).

The compounds below were run against α7 nAChR subtype (Rattus norvegicus, UniProt Q05941) (assay: Test A: 125I-α-Bungarotoxin binding to rat hippocampal membranes (affinity at α7 nAChR subtype)). Conditions: [125I]α-BTX displacement, rat hippocampal membranes.
Procedure: Test A—Assay for Affinity at α7 nAChR subtype
125I-α-Bungarotoxin (BTX) binding to rat hippocampal membranes. Rat hippocampi were homogenized in 20 volumes of cold homogenization buffer (HB: concentrations of constituents (mM): tris(hydroxymethyl)aminomethane 50; MgCl2 1; NaCl 120; KCl 5: pH 7.4). The homogenate was centrifuged for 5 minutes at 1000 g, the supernatant was saved and the pellet re-extracted. The pooled supernatants were centrifuged for 20 minutes at 12,000 g, washed, and re-suspended in HB. Membranes (30-80 μg) were incubated with 5 nM [^125I] α-BTX, 1 mg/mL BSA (bovine serum albumin), test drug, and either 2 mM CaCl2 or 0.5 mM EGTA [ethylene glycol-bis(β-aminoethylether)] for 2 hours at 21° C., and then filtered and washed 4 times over Whatman glass fibre filters (thickness C) using a Brandel cell harvester.
Binding data analysis for Tests A and B
IC50 values and pseudo Hill coefficients (nH) were calculated using the non-linear curve fitting program ALLFIT (DeLean A, Munson P J and Rodbard D (1977) Am. J. Physiol., 235:E97-E102). […] Ki values were determined using 6 or more drug concentrations.

Sequence of α7 nAChR subtype (Q05941 23-502): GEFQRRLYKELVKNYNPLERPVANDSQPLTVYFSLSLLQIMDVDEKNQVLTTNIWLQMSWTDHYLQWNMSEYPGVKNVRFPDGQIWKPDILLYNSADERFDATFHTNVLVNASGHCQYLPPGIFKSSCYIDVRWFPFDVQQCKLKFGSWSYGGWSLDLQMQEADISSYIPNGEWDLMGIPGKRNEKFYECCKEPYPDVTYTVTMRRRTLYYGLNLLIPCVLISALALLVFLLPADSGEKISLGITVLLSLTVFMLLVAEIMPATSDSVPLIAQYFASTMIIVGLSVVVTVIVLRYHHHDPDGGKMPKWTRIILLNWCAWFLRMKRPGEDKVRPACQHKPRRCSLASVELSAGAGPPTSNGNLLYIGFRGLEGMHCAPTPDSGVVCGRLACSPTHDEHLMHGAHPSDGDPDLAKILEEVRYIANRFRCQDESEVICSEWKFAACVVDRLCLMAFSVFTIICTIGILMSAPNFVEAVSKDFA

SMILES	Ki [nM]
O=C1c2cc(-c3cccc4ncccc34)ccc2CN1[C@H]1CN2CCC1CC2 [Example 42, 2-(R)-1-Aza-bicyclo[2.2.2]oct-3-yl-6-quinolin-5-yl-2,3-dihydro-isoindol-1-one]	89.6
O=C1c2cc(-c3cnc4ccccc4c3)ccc2CN1[C@H]1CN2CCC1CC2 [Example 45, 2-(R)-1-Aza-bicyclo[2.2.2]oct-3-yl-6-quinolin-3-yl-2,3-dihydro-isoindol-1-one]	66.8
O=C(c1cccc(-c2ccc3c(c2)C(=O)N([C@H]2CN4CCC2CC4)C3)c1)N1CCCC1 [Example 70, 2-(R)-1-Aza-bicyclo[2.2.2]oct-3-yl-6-[3-(pyrrolidine-1-carbonyl)-phenyl]-2,3-dihydro-isoindol-1-one]	14
O=C1c2cc(-c3cccc(OCc4ccccc4)c3)ccc2CN1[C@H]1CN2CCC1CC2 [Example 67, 2-(R)-1-Aza-bicyclo[2.2.2]oct-3-yl-6-(3-benzyloxy-phenyl)-2,3-dihydro-isoindol-1-one]	51
NC(=O)c1cccc(-c2ccc3c(c2)C(=O)N([C@H]2CN4CCC2CC4)C3)c1 [Example 55, 3-((R)-2-1-Aza-bicyclo[2.2.2]oct-3-yl-3-oxo-2,3-dihydro-1H-isoindol-5-yl)-benzamide]	17
CC(=O)Nc1ccc(-c2ccc3c(c2)C(=O)N([C@H]2CN4CCC2CC4)C3)cc1 [Example 49, N-[4-((R)-2-1-Aza-bicyclo[2.2.2]oct-3-yl-3-oxo-2,3-dihydro-1H-isoindol-5-yl)-phenyl]-acetamide]	3.2
O=C(c1cccc(-c2ccc3c(c2)C(=O)N([C@H]2CN4CCC2CC4)C3)c1)N1CCCCC1 [Example 69, 2-(R)-1-Aza-bicyclo[2.2.2]oct-3-yl-6-[3-(piperidine-1-carbonyl)-phenyl]-2,3-dihydro-isoindol-1-one]	23
O=C(NCc1ccccc1)c1ccc(-c2ccc3c(c2)C(=O)N([C@H]2CN4CCC2CC4)C3)cc1 [Example 56, 4-((R)-2-1-Aza-bicyclo[2.2.2]oct-3-yl-3-oxo-2,3-dihydro-1H-isoindol-5-yl)-N-benzyl-benzamide]	100
